# Measurements: BindingDB's records for doi:10.7270/Q2PN941W (The Scripps Research Institute Molecular Screening Center, 2007)
# Where a name gives a salt, the structure may show the parent alone.
# Target: Sphingosine 1-phosphate receptor 3 (Homo sapiens, UniProt Q99500)
# Test: S1P3 reporter-cell activation, dose response, counter-screen for 5HT1E agonist project (AID 730)
# Chain of Sphingosine 1-phosphate receptor 3 (Q99500 whole entry): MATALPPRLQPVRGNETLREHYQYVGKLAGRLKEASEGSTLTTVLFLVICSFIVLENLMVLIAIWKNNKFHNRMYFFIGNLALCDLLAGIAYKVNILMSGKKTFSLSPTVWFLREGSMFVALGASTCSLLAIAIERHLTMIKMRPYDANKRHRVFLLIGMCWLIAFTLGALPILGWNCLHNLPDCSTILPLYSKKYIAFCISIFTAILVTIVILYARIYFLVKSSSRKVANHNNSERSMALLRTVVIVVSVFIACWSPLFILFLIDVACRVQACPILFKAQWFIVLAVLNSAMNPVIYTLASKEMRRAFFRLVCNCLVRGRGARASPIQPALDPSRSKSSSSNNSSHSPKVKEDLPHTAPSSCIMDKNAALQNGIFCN
row,Structure (SMILES),EC50 [µM]
1,CCCCc1ccc2[nH]cc(CCN)c2c1,> 40
2,CN1CCN(C(N=O)c2nonc2N)CC1 (stereo not given),> 40
3,CN(C)CCCn1c(NC(=O)C2CCCCC2)nc2ccccc21,> 40
4,Cc1c(CN2CCN(c3cccc(C(F)(F)F)c3)CC2)c(=O)n(-c2ccccc2)n1C,> 40
5,C1=C(c2c[nH]c3ccccc23)CCNC1,> 40
6,Cc1[nH]c2c(Cl)cccc2c1CCN,> 40
7,c1ccc(N2CCN(Cc3cn4cccnc4n3)CC2)cc1,> 40
8,COc1ccc(CN2CCN(c3ccccc3F)CC2)c(OC)c1,> 40
9,Cn1cc(C(Cc2ccccc2)N=O)c2ccccc21 (stereo not given) [1-(1-methyl-3-indolyl)-2-phenylethanone oxime],> 40
10,"CCN(CC)c1nc(N2CCOCC2)c(C#N)c2c1CN(C)CC2 [1-(diethylamino)-7-methyl-3-morpholin-4-yl-6,8-dihydro-5H-2,7-naphthyridine-4-carbonitrile]",> 40
11,O=C(NCc1ccccc1)NC1(C(=O)N2CCCC2)CCCCC1 [1-Benzyl-3-[1-(pyrrolidine-1-carbonyl)-cyclohexyl]-urea],> 40
12,"CCCCN(CC)Cc1ccc(CNC(=O)Nc2ccc(OC)cc2OC)o1 [1-[[5-[[butyl(ethyl)amino]methyl]furan-2-yl]methyl]-3-(2,4-dimethoxyphenyl)urea]",> 40
13,CN(C)CCOC(=O)c1cn(Cc2ccccc2)c2ccccc12 [2-(dimethylamino)ethyl 1-(phenylmethyl)indole-3-carboxylate;hydrochloride],> 40
14,O=C(O)C1CCCCC1C(=O)NCCc1c[nH]c2ccccc12 (stereo not given) [2-[2-(1H-indol-3-yl)ethylcarbamoyl]cyclohexane-1-carboxylic acid],> 40
15,Cc1[nH]c2c(C(F)(F)F)cccc2c1CCN [2-[2-methyl-7-(trifluoromethyl)-1H-indol-3-yl]ethanamine;hydrochloride],> 40
16,COc1ccc2[nH]cc(CCN(C)C)c2c1 [3-(2-DIMETHYLAMINOETHYL)-5-METHOXYINDOLE],> 40
17,CCOC(=O)C1CCN(C(=O)Cc2c(C(=O)O)n(C)c3ccccc23)CC1 [3-{2-[4-(ethoxycarbonyl)piperidin-1-yl]-2-oxoethyl}-1-methyl-1H-indole-2-carboxylic acid],> 40
18,"COC(=O)CC(=O)Cc1nc(N)nc(Nc2ccc(C)c(C)c2)n1 [4-[4-amino-6-(3,4-dimethylanilino)-1,3,5-triazin-2-yl]-3-oxobutanoic acid methyl ester]",> 40
19,"COc1cc(CN2CCN(c3cccc(C)c3C)CC2)cc(OC)c1O [4-[[4-(2,3-dimethylphenyl)piperazin-1-yl]methyl]-2,6-dimethoxy-phenol]",> 40
20,"Cc1cccc(N2CCN(C(=O)Cc3c(C(=O)O)[nH]c4ccc(Cl)cc34)CC2)c1C [5-chloranyl-3-[2-[4-(2,3-dimethylphenyl)piperazin-1-yl]-2-oxidanylidene-ethyl]-1H-indole-2-carboxylic acid]",> 40
21,CC[C@@H](CO)NC(=O)[C@@H]1C=C2c3cccc4c3c(cn4C)C[C@H]2N(C)C1 [METHYSERGIDE MALEATE],> 40
22,CN1CCN2c3ccccc3Cc3ccccc3C2C1 (stereo not given) [MIANSERIN HYDROCHLORIDE],> 40
23,Cc1[nH]c2ccccc2c1C1=CCNCC1 [MLS000045807],> 40
24,NCCc1c[nH]c2ccc(F)cc12 [MLS000047815],> 40
25,C[N+]1=C2CCCCCN2C(O)(c2ccccc2)C1 (stereo not given) [MLS000048587],> 40

row,Structure (SMILES),EC50 [µM]
1,O=S(=O)(c1cccc(Cl)c1)N1CCCC1 [MLS000063405],> 40
2,Cn1c(-c2ccccc2)cnc1SCc1nc(O)c2ccccc2n1 [MLS000077265],> 40
3,CC(=O)Nc1ccc(S(=O)(=O)N(C)c2ccc(O)cc2)cc1 [MLS000081936],> 40
4,CCN1CC=C(c2c[nH]c3ccccc23)CC1 [MLS000093713],> 40
5,CN1CC=C(c2c[nH]c3ccccc23)CC1 [MLS000120058],> 40
6,CC(CCc1ccccc1)NC(=O)CSc1nc(N)cc(N)n1 (stereo not given) [MLS000254508],> 40
7,CCc1ccc(NC(=O)Cn2c(SC)nc3ccccc32)cc1 [N-(4-ethylphenyl)-2-[2-(methylthio)-1-benzimidazolyl]acetamide],> 40
8,CNCCc1c[nH]c2ccccc12 [N-OMEGA-METHYLTRYPTAMINE],> 40
9,"COc1ccc(N(CC(=O)NC2CCCC2)C(=O)Cn2nnc(-c3ccc(C)cc3)n2)cc1OC [N-[2-(cyclopentylamino)-2-oxoethyl]-N-(3,4-dimethoxyphenyl)-2-[5-(4-methylphenyl)tetrazol-2-yl]acetamide]",> 40
10,"CSc1nc2ccc(NC(=O)C3CCCO3)cc2s1 (stereo not given) [N-[2-(methylthio)-1,3-benzothiazol-6-yl]-2-oxolanecarboxamide]",> 40
11,"O=C(Nc1cccc(-c2cn3ccsc3n2)c1)c1ccccc1 [N-[3-(6-imidazo[2,1-b]thiazolyl)phenyl]benzamide]",> 40
12,"CCCCN(C)CCCNC(=O)Cn1c(=O)sc2ccccc21 [N-{3-[butyl(methyl)amino]propyl}-2-(2-oxo-1,3-benzothiazol-3(2H)-yl)acetamide]",> 40
13,Cc1cccc(NC(=O)C2CCCN(C(=O)Nc3ccccc3)C2)c1C (stereo not given) [SMR000006943],> 40
14,CCOC(=O)C1CCN(C(c2cccnc2)c2c(NC(=O)c3ccco3)sc(C)c2C)CC1 (stereo not given) [SMR000019649],> 40
15,CCc1nn(C(C)C(=O)NCCN2CCN(c3cccc(C)c3C)CC2)c(=O)c2cc3occc3n12 (stereo not given) [SMR000029605],> 40
16,Cc1cc(C(C)(C)C)cc(C)c1CC1=NCCN1 [SMR000058526],> 40
17,Cc1cc(C(C)(C)C)c(O)c(C)c1CC1=NCCN1 [SMR000059324],> 40
18,c1ccc2sc(C3CCCNC3)nc2c1 (stereo not given) [SMR000067014],> 40
19,CCOC(=O)C1C(C)=NC(=O)NC1c1ccc(OCC(=O)Nc2ccccc2)c(OC)c1 (stereo not given) [SMR000093032],> 40
20,CC1CN(c2nnnn2-c2ccccc2)CC(C)O1 (stereo not given) [SMR000109556],> 40
21,"Cc1noc(C)c1COc1ccc(C(=O)OC(C)C(=O)Nc2ccc(N3CCOCC3)cc2)cc1 (stereo not given) [[1-[(4-morpholin-4-ylphenyl)amino]-1-oxidanylidene-propan-2-yl] 4-[(3,5-dimethyl-1,2-oxazol-4-yl)methoxy]benzoate]",> 40
22,O=C(COC(=O)CCC1CCCC1)Nc1ccc(Cl)cn1 [[2-[(5-chloropyridin-2-yl)amino]-2-oxoethyl] 3-cyclopentylpropanoate],> 40
23,"CCOC(=O)c1oc2ccccc2c1NC(=O)c1cc(OC)cc(OC)c1 [ethyl 3-[(3,5-dimethoxybenzoyl)amino]-1-benzofuran-2-carboxylate]",> 40
24,CCOC(=O)c1c(C)nc(-c2ccccc2)nc1NC(=O)CC [ethyl 4-methyl-2-phenyl-6-(propionylamino)pyrimidine-5-carboxylate],> 40
25,CCOC(=O)c1cc2ccc(OC(=O)c3ccco3)cc2oc1=O [ethyl 7-(2-furoyloxy)-2-oxo-2H-chromene-3-carboxylate],10.5
